Data published in patent publication US20060078921A1, “Biomarkers and expression profiles for toxicology” (priority 2002, published 2006).

Assays:
EGR1 = assay: EGR-1 induction in rats (RT-PCR); assay type: in vivo; details: confirmed by RT-PCR
Experimental: Tolcapone (Tasmar) is a human hepatotoxin with no known toxicity in the rat.
§: The compounds were administered to the experimental animals three times, every 12 Hours. Animals were sacrificed 3 hours after the last administration. Shaded cells represent significant induction (threshold usually 2-fold induction).

liver = details: man, cited from earlier work
GADD-45 = assay: RT-PCR of GADD-family genes in liver, GADD-45; design: species or system Wistar rats; details: rat liver, in vivo
Excerpt: (§1) The induction of these genes correlates with the histopathological findings in a time related fashion: While PEG-3 seems to be an early marker, GADD-45 and GADD-143 appear regulated at later time points, when the tissue damage is obvious by conventional endpoints.

GADD-153 = assay: RT-PCR of GADD-family genes in liver, GADD-153; design: species or system Wistar rats; details: rat liver, in vivo
Excerpt: as §1

PEG-3 = assay: RT-PCR of GADD-family genes in liver, PEG-3; design: species or system Wistar rats; details: rat liver, in vivo
Excerpt: as §1

[1] = Classification of liver expression profiles with support vector machines; design: species or system Wistar rats; details: compounds not present in the initial training set, individual animals, 5 SVMs
Experimental: Adult male Wistar rats were dosed in vivo and the resulting expression profile in liver was determined. SVMs were built for the discrimination between 3 different classes of hepatotoxicants, non-toxic substances and controls. The training set consisted of 180 gene expression profiles from individual animals treated with direct acting, cholestatic, steatotic, non-toxic compounds and corresponding vehicle-dosed controls. As a first step the chips were rescaled to a median value of 0 and a standard deviation of 1. Subsequently chips were presented to a linear kernel SVM (for classifier training the SVM software package from William Stafford Noble, Department of Computer Science, Columbia University, New York was used. Procedures for the Recursive Feature Elimination (RFE), automation of the whole training cycles and further data analysis were developed in house, using the PERL language.) Single binary classifiers for each category of chips were obtained by training one group against all others (‘One-vs-All’ training method). Multi-class classification for a given test chip was then carried out by combining the outputs of all binary classifiers. A leave-one-out cross validation procedure was applied to assess the quality of the trained machines with respect to the training data. […]

AH-Receptor = assay: Affymetrix GeneChip liver expression, AH-R; assay type: in vivo, Wistar rats; details: rat liver, 24 H, control = 1.0
Experimental: Male Wistar rats (generally 5 animals/dose-group) were purchased from BRL (Füllingsdorf, Switzerland) and housed individually. Treated animals were dosed either orally, intraperitoneally, or intravenously with several doses of test compounds (Table 1). […] Control animals received the same volume of vehicle as placebo. Necropsy was performed 6 or 24 hours after a single administration and liver samples from the left medial lobe were placed immediately in RNALater (Ambion, Tex., USA) for RNA extraction and gene expression analysis. Samples in RNALater were stored at −20° C. until further processing.
For RNA isolation from liver tissue, a portion of tissue of approximately 100 mg was transferred to a tube containing 1.2 ml RNAzol. […] Total RNA was isolated according to the manufacturer's instruction and quantified by measuring the optical density at 280 nm. The quality of RNA was assessed with gel electrophoresis. […]
After hybridization and scanning, the expression level of each gene was calculated by subtracting the fluorescence intensity of the mismatch probes from the match signal (=average difference) using the [sequence] […] Gene expression data were further analyzed with an in-house-developed data analysis tool (RACE-A, Hoffmann-La Roche, Basel, Switzerland). […] Analyzed data were stored in a toxicogenomics database (RACE-R, Hoffmann-La Roche, Basel, Switzerland). […]

[2] = test system: candidate marker genes (Table 4); assay: RT-PCR of candidate marker genes to differentiate toxic and non-toxic 5-HT6 receptor antagonists (FIG. 10); assay type: in vivo, Wistar rats; details: rat liver, some of the selected genes
Experimental: The regulation of the mRNA levels of several candidate genes (Table 4) was verified with quantitative RT-PCR. Specific primers for these genes have been designed in order to evaluate the expression with RT-PCR using SybrGreen assay (Table 6). For each performed RT-PCR reaction, the specificity of the assay was evaluated with dissociation curve software (Applied Biosystems), as well as by assessment of the size of the product using either gel electrophoresis or Agilent Bioanalyzer.
In a first step, the induction of the mRNA levels of 9 candidate genes (Table 5 and FIG. 10) was verified with quantitative PCR. […] As an internal control, the house-keeping gene glycernine-aldehyde-phosphate-dehydrogenase (GAPDH) was also analyzed.

Row | SMILES | induction of GADD-45 (RT-PCR) (GADD-45) | induction of GADD-153 (RT-PCR) (GADD-153) | induction of PEG-3 (RT-PCR) (PEG-3) | also measured
1 | Cc1ccc(C(=O)c2cc(O)c(O)c([N+](=O)[O-])c2)cc1 [Tolcapone] | – | – | – | induction of EGR1 (EGR1; high dose 300 mg/kg): slight induction
2 | CN(C)CCCN1c2ccccc2Sc2ccc(Cl)cc21 [Chlorpromazine] | – | – | – | treated patients who develop jaundice (liver): Up to 1%
3 | O=[N+]([O-])c1ccc(O)c([N+](=O)[O-])c1 [dinitrophenol, Dinitrophenol] | – | – | – | induction of EGR1 (EGR1; 10 and 30 mg/kg): slight induction
4 | Clc1ccccc1Cl [1,2-dichlorobenzene] | induction | induction | induction | SVM classification of compound class from liver expression profiles [1]: direct acting compound
5 | CC(=N)S [Thioacetamide] | induction | induction | induction | –
6 | O=C(O)CCCCCCNC1c2ccccc2CCc2ccccc21 [amineptine] | – | – | – | SVM classification of compound class from liver expression profiles [1]: steatotic compound
7 | Nc1ccc(S(=O)(=O)c2cc(Br)nc(N3CCCC3)c2)cc1 [Ro66-0074, 4-(2-Bromo-6-pyrrolidin-1-yl-pyridine-4-sulfonyl)-phenylamine] | – | – | – | AH-R Affymetrix (AH-Receptor): 1.0; expression levels of selected marker genes (RT-PCR, FIG. 10) [2]: slight induction
8 | NN [Hydrazine] | induction | induction | induction | –
9 | Nc1c2c(nc3ccccc13)CCCC2 [Tacrine] | – | – | – | incidence of hepatotoxicity in treated patients (liver; Alzheimer's disease patients): 40-50%
